According to patent US9580463B2 (BRISTOL-MYERS SQUIBB COMPANY, priority 2013, dated 2017):
Read-outs that look alike come from different tables or passages of the source.

What was measured:
[1] = tested on: HCV genotype 1a (H77 strain) replicon in HUH-7 cells; experiment: HCV replicon luciferase reporter assay, genotype 1a; type: cell-based; details: Hepatitis C virus, 72 h, genotype 1a replicon, 3 days incubation
Excerpt: An HCV replicon whole cell system was established as described by Lohmann V, Korner F, Koch J, Herian U, Theilmann L, Bartenschlager R., Science 285(5424):110-3 (1999) and modified to introduce a luciferase reporter, as first described by Krieger et al (Krieger N, Lohmann V, and Bartenschlager R, J. Virol. 75(10):4614-4624 (2001)). CDNA encoding a humanized form of the Renilla luciferase gene and a linker sequence fused directly to the 3′-end of the luciferase gene were introduced into the replicon construct using an Asc1 restriction site located in core, directly upstream of the neomycin marker gene. The adaptive mutation at position 1179 (serine to isoleucine) was also introduced (Blight K J, Kolykhalov, A A, Rice, C M, Science 290(5498):1972-1974). A stable cell line constitutively expressing this HCV replicon construct was generated by first linearizing plasmid DNAs with ScaI. RNA transcripts were synthesized in vitro using the T7 MegaScript transcription kit (Ambion, Austin, Tex.) according to manufacturer's directions. In vitro transcripts of the cDNA were transfected into the human hepatoma cell line, HUH-7. […] Resulting cell lines were characterized for positive and negative strand RNA production and protein production over time.
A stable HCV replicon luciferase reporter cell line representing the genotype 1a H77 strain (Yanagi M, Purcell R H, Emerson S U, et al. Transcripts from a single full-length cDNA clone of hepatitis C virus are infectious when directly transfected into the liver of a chimpanzee. Proc Natl Acad Sci USA 1997; 94(16):8738-8743) was generated as described previously for the genotype 1b (Con1) replicon luciferase cell line. The replicon construct was modified by introducing mutations were introduced into the genes encoding the NS3 helicase domain (proline replaced by leucine at position 1496) and NS5A (serine to isoleucine at position 2204) to improve replication in cell culture.
HCV replicon luciferase assays were developed to monitor the inhibitory effects of compounds described in the disclosure on HCV genotypes 1a and 1b viral replication. HUH-7 cells, constitutively expressing the HCV replicon, were grown in Dulbecco's Modified Eagle Media (DMEM) (Gibco-BRL) containing 10% Fetal calf serum (FCS) (Sigma) and 1 mg/mL G418 (Gibco-BRL). Compounds were serially diluted 3 folds in DMSO for a twenty-point titration and subsequently transferred to sterile 384-well tissue-culture treated plates (Corning cat #3571). The plates were then seeded with 50 μL of cells at a density of 3.0×10^3 cells/well in DMEM containing 4% FCS (final DMSO concentration at 0.5%). After 3 days incubation at 37° C., cells were analyzed for Renilla Luciferase activity using the EnduRen as substrate (Promega cat #E6485). The EnduRen substrate was diluted in DMEM and then added to the plates to a final concentration of 7.5 μM. The plates were incubated for 2 hrs at 37° C. and then read immediately for 30 seconds with Viewlux Imager (PerkinElmer) using a luminescence program. To assess cytotoxicity of compounds, CC50 values were generated by multiplexing the EnduRen-containing plates with Cell Titer-Blue (Promega, cat # G8082). Cell-Titer Blue (3 μL) was added to each well and incubated for 8 hrs at 37° C. The fluorescence signal from each well was read, with an excitation wavelength at 525/10 nm and an emission wavelength of 598/10 nm, using the Viewlux Imager.
The EC50 values for compounds were calculated by using a four-parameter logistic equation: y=A+((B−A)/(1+((C/x)^D))), where A and B denotes minimal and maximal % inhibition, respectively, C is the EC50, D is the hill slope and x represents compound concentration.

[2] = tested on: HCV genotype 1b (Con1) replicon in HUH-7 cells; experiment: HCV replicon luciferase reporter assay, genotype 1b; type: cell-based; details: Hepatitis C virus, 72 h, genotype 1b replicon, 3 days incubation
Procedure, shortened: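 Twenty-point, threefold compound titrations (0.5% DMSO) were incubated 3 days at 37 °C with 3.0×10^3 HUH-7 cells/well in 4% FCS. The cells stably carried luciferase replicons: genotype 1b Con1 (S1179I) or 1a H77 (NS3 P1496L, NS5A S2204I). Renilla signal was read after 2 h with 7.5 μM EnduRen, and EC50 was taken from a four-parameter logistic fit. Cytotoxicity (CC50) was measured by Cell Titer-Blue, 8 h.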

Row | Compound | EC50 ([1]; read-out: LE_1a (EC50, range)) | EC50 ([2]; read-out: LE_1b (EC50, range)) | EC50 ([1]; read-out: LE_1a (EC50)) | EC50 ([2]; read-out: LE_1b (EC50))
1 | COC[C@@H]1CCCC/C=C\[C@@H]2C[C@@]2(C(=O)NS(=O)(=O)C2CC2)NC(=O)[C@@H]2C[C@@H](Oc3nccc4cc(OC)c(F)cc34)CN2C(=O)[C@H]1NC(=O)OC(C)(C)C [Compound 1022] | 1.01 to 5 nM | 1.01 to 5 nM | – | –
2 | COC[C@@H]1C[C@H](C)CC/C=C\[C@@H]2C[C@@]2(C(=O)NS(=O)(=O)C2(C)CC2)NC(=O)[C@@H]2C[C@@H](Oc3nc4cc(OC)ccc4nc3C(C)C)CN2C(=O)[C@H]1NC(=O)OC(C)(C)C(F)(F)F [Compound 1034, 1,1,1-trifluoro-2-methylpropan-2-yl ((2R,6S,7R,9R,13aS,14aR,16aS,Z)-2-((3-isopropyl-7-methoxyquinoxalin-2-yl)oxy)-7-(methoxymethyl)-9-methyl-14a-(((1-methylcyclopropyl)sulfonyl)carbamoyl)-5,16-dioxo-1,2,3,5,6,7,8,9,10,11,13a,14,14a,15,16,16a-hexadecahydrocyclopropa[e]pyrrolo[1,2-a][1,4]diazacyclopentadecin-6-yl)carbamate] | 1.01 to 5 nM | 0.51 to 1 nM | – | –
3 | COC[C@@H]1C[C@H](C)CC/C=C\[C@@H]2C[C@@]2(C(=O)NS(=O)(=O)C2CC2)NC(=O)[C@@H]2C[C@@H](Oc3nc4cc(OC)ccc4nc3C(F)(F)F)CN2C(=O)[C@H]1NC(=O)OC(C)(C)C(F)(F)F [Compound 1041, 1,1,1-trifluoro-2-methylpropan-2-yl ((2R,6S,7R,9R,13aS,14aR,16aS,Z)-14a-((cyclopropylsulfonyl)carbamoyl)-2-((7-methoxy-3-(trifluoromethyl)quinoxalin-2-yl)oxy)-7-(methoxymethyl)-9-methyl-5,16-dioxo-1,2,3,5,6,7,8,9,10,11,13a,14,14a,15,16,16a-hexadecahydrocyclopropa[e]pyrrolo[1,2-a][1,4]diazacyclopentadecin-6-yl)carbamate] | 0.51 to 1 nM | 0.51 to 1 nM | 0.61 nM | 0.75 nM
4 | COC[C@@H]1C[C@@H](C)CC/C=C\[C@@H]2C[C@@]2(C(=O)NS(=O)(=O)C2CC2)NC(=O)[C@@H]2C[C@@H](Oc3nc4cc(OC)ccc4nc3C(F)(F)F)CN2C(=O)[C@H]1NC(=O)OC(C)(C)C(F)(F)F [Compound 1042, 1,1,1-trifluoro-2-methylpropan-2-yl ((2R,6S,7R,9S,13aS,14aR,16aS,Z)-14a-((cyclopropylsulfonyl)carbamoyl)-2-((7-methoxy-3-(trifluoromethyl)quinoxalin-2-yl)oxy)-7-(methoxymethyl)-9-methyl-5,16-dioxo-1,2,3,5,6,7,8,9,10,11,13a,14,14a,15,16,16a-hexadecahydrocyclopropa[e]pyrrolo[1,2-a][1,4]diazacyclopentadecin-6-yl)carbamate] | 5.01 to 35 nM | 1.01 to 5 nM | – | –
5 | COC[C@@H]1C[C@@H](C)CC/C=C\[C@@H]2C[C@@]2(C(=O)NS(=O)(=O)C2(C)CC2)NC(=O)[C@@H]2C[C@@H](Oc3nc4cc(OC)ccc4nc3C(F)(F)F)CN2C(=O)[C@H]1NC(=O)OC(C)(C)C [Compound 1027, tert-butyl ((2R,6S,7R,9S,13aS,14aR,16aS,Z)-2-((7-methoxy-3-(trifluoromethyl)quinoxalin-2-yl)oxy)-7-(methoxymethyl)-9-methyl-14a-(((1-methylcyclopropyl)sulfonyl)carbamoyl)-5,16-dioxo-1,2,3,5,6,7,8,9,10,11,13a,14,14a,15,16,16a-hexadecahydrocyclopropa[e]pyrrolo[1,2-a][1,4]diazacyclopentadecin-6-yl)carbamate] | 5.01 to 35 nM | 1.01 to 5 nM | – | –
6 | COC[C@@H]1C[C@H](C)CC/C=C\[C@@H]2C[C@@]2(C(=O)NS(=O)(=O)C2CC2)NC(=O)[C@@H]2C[C@@H](Oc3ncc(OC)c4ccccc34)CN2C(=O)[C@H]1NC(=O)OC(C)(C)C(F)(F)F [Compound 1012, 1,1,1-trifluoro-2-methylpropan-2-yl ((2R,6S,7R,9R,13aS,14aR,16aS,Z)-14a-((cyclopropylsulfonyl)carbamoyl)-2-((4-methoxyisoquinolin-1-yl)oxy)-7-(methoxymethyl)-9-methyl-5,16-dioxo-1,2,3,5,6,7,8,9,10,11,13a,14,14a,15,16,16a-hexadecahydrocyclopropa[e]pyrrolo[1,2-a][1,4]diazacyclopentadecin-6-yl)carbamate] | 0.51 to 1 nM | 0.1 to 0.5 nM | – | –
7 | COC[C@@H]1C[C@H](C)CC/C=C\[C@@H]2C[C@@]2(C(=O)NS(=O)(=O)C2(C)CC2)NC(=O)[C@@H]2C[C@@H](Oc3nc4cc(OC)ccc4nc3C(F)(F)F)CN2C(=O)[C@H]1NC(=O)OC(C)(C)C [Compound 1028, tert-butyl ((2R,6S,7R,9R,13aS,14aR,16aS,Z)-2-((7-methoxy-3-(trifluoromethyl)quinoxalin-2-yl)oxy)-7-(methoxymethyl)-9-methyl-14a-(((1-methylcyclopropyl)sulfonyl)carbamoyl)-5,16-dioxo-1,2,3,5,6,7,8,9,10,11,13a,14,14a,15,16,16a-hexadecahydrocyclopropa[e]pyrrolo[1,2-a][1,4]diazacyclopentadecin-6-yl)carbamate] | 0.51 to 1 nM | 0.1 to 0.5 nM | – | –
8 | COC[C@@H]1C[C@H](C)CC/C=C\[C@@H]2C[C@@]2(C(=O)NS(=O)(=O)C2(CF)CC2)NC(=O)[C@@H]2C[C@@H](Oc3nc4cc(OC)ccc4nc3C(C)C)CN2C(=O)[C@H]1NC(=O)OC(C)(C)C [Compound 1025, tert-butyl ((2R,6S,7R,9R,13aS,14aR,16aS,Z)-14a-(((1-(fluoromethyl)cyclopropyl)sulfonyl)carbamoyl)-2-((3-isopropyl-7-methoxyquinoxalin-2-yl)oxy)-7-(methoxymethyl)-9-methyl-5,16-dioxo-1,2,3,5,6,7,8,9,10,11,13a,14,14a,15,16,16a-hexadecahydrocyclopropa[e]pyrrolo[1,2-a][1,4]diazacyclopentadecin-6-yl)carbamate] | 5.01 to 35 nM | 1.01 to 5 nM | 7.01 nM | 1.38 nM
9 | COC[C@@H]1CCCC/C=C\[C@@H]2C[C@@]2(C(=O)NS(=O)(=O)C2(C)CC2)NC(=O)[C@@H]2C[C@@H](Oc3ncc(OC)c4ccccc34)CN2C(=O)[C@H]1NC(=O)OC(C)(C)C [Compound 1007, tert-butyl ((2R,6S,7R,13aS,14aR,16aS,Z)-2-((4-methoxyisoquinolin-1-yl)oxy)-7-(methoxymethyl)-14a-(((1-methylcyclopropyl)sulfonyl)carbamoyl)-5,16-dioxo-1,2,3,5,6,7,8,9,10,11,13a,14,14a,15,16,16a-hexadecahydrocyclopropa[e]pyrrolo[1,2-a][1,4]diazacyclopentadecin-6-yl)carbamate] | 1.01 to 5 nM | 0.51 to 1 nM | – | –
10 | COC[C@@H]1C[C@H](C)CC/C=C\[C@@H]2C[C@@]2(C(=O)NS(=O)(=O)C2CC2)NC(=O)[C@@H]2C[C@@H](Oc3ncc(OC)c4ccccc34)CN2C(=O)[C@H]1NC(=O)OC(C)(C)C [Compound 1003, tert-butyl ((2R,6S,7R,9R,13aS,14aR,16aS,Z)-14a-((cyclopropylsulfonyl)carbamoyl)-2-((4-methoxyisoquinolin-1-yl)oxy)-7-(methoxymethyl)-9-methyl-5,16-dioxo-1,2,3,5,6,7,8,9,10,11,13a,14,14a,15,16,16a-hexadecahydrocyclopropa[e]pyrrolo[1,2-a][1,4]diazacyclopentadecin-6-yl)carbamate] | 0.51 to 1 nM | 0.1 to 0.5 nM | – | –
